Assay results: publication PMC4506373 (Journal of Ginseng Research, 2014)

System: special ginsenosidase type-I
Details: 0.02 M acetate buffer pH 5.0, 45°C; hydrolysis of 3-O-Glc of Rb2 to C-O

SMILES: CC(C)=CCC[C@](C)(O[C@@H]1O[C@H](CO[C@@H]2OC[C@H](O)[C@H](O)[C@H]2O)[C@@H](O)[C@H](O)[C@H]1O)[C@H]1CC[C@]2(C)[C@@H]1[C@H](O)C[C@@H]1[C@@]3(C)CC[C@H](O[C@@H]4O[C@H](CO)[C@@H](O)[C@H](O)[C@H]4O[C@@H]4O[C@H](CO)[C@@H](O)[C@H](O)[C@H]4O)C(C)(C)[C@@H]3CC[C@]12C [Rb2]
- Km: 20.4 ± 2.1 mM
